In the assay the target is Human LDHA (Homo sapiens (Human), UniProt P00338). Description: human LDHA primary biochemical assay. Conditions: biochemical LDHA inhibitory activity, assay of Example 1; activity level classes defined in nM. An excerpt: This example describes a human LDHA primary biochemical assay employed in the characterization of a compound of formula (I) in an embodiment of the invention.
Test compounds were placed in a Greiner Bio-One (Monroe, N.C.) 1536-well black solid bottom assay plate. 200 millimolar (mM) Tris HCl, pH 7.4, 100 micromolar (μM) EDTA and 0.01% TWEEN-20™, final concentration, was used as the assay buffer. The LDHA reagent was 2 nanomolar (nM) Human LDHA (Meridian Life Science, Inc., Memphis, Tenn.), final concentration, in assay buffer. The substrate reagent was 0.06 mM NADH and 0.2 mM sodium pyruvate, final concentration, in assay buffer. The resazurin/diaphorase coupling reagent was 0.037 mM resazurin and 0.133 milligrams per milliliter (mg/mL) diaphorase, final concentration, in assay buffer. The inhibition of LDHA activity was measured by fluorescence emission.

On to “2-(5-([1,1′-bi(cyclopropan)]-2-yl)-4- (3-fluoro-4-sulfamoylbenzyl)- 3-(3-((5-methylthiophen-2- yl)ethynyl)phenyl)-1H-pyrazol-1- yl)thiazole-4-carboxylic acid [Compound 134]”, for which the 50% inhibitory concentration (IC50) was 100 to 1000 nM.

Compound `Cc1ccc(C#Cc2cccc(-c3nn(-c4nc(C(=O)O)cs4)c(C(C)C4CC4)c3Cc3ccc([S+](N)(=O)[O-])c(F)c3)c2)s1` (stereo not shown) [Compound 116, 2-(5-(1-cyclopropylethyl)-4-(3-fluoro-4-sulfamoylbenzyl)-3-(3-((5-methylthiophen-2-yl)ethynyl)phenyl)-1H-pyrazol-1-yl)thiazole-4-carboxylic acid] displayed an IC50 of 100 to 1000 nM. As to `Cc1ccc(C#Cc2cccc(-c3nn(-c4nc(C(=O)O)cs4)c(C(C4CC4)C4CC4)c3Cc3ccc([S+](N)(=O)[O-])c(F)c3)c2)s1` [Compound 126, 2-(5-(dicyclopropylmethyl)-4-(3-fluoro-4-sulfamoylbenzyl)-3-(3-((5-methylthiophen-2-yl)ethynyl)phenyl)-1H-pyrazol-1-yl) thiazole-4-carboxylic acid], the IC50 was in the range of 1000 to 57000 nM. `Cc1ccc(C#Cc2cccc(-c3nn(-c4nc(C(=O)O)cs4)c(C(C)(C)C4CC4)c3Cc3ccc([S+](N)(=O)[O-])c(F)c3)c2)s1` [Compound 128, 2-(5-(2-cyclopropylpropan-2-yl)-4-(3-fluoro-4-sulfamoylbenzyl)-3-(3-((5-methylthiophen-2-yl)ethynyl)phenyl)-1H-pyrazol-1-yl) thiazole-4-carboxylic acid] displayed an IC50 of 100 to 1000 nM.

`Cc1ccc(C#Cc2cccc(-c3nn(-c4nc(B(O)O)cs4)c(CC4CC4)c3Cc3ccc(S(N)(=O)=O)c(F)c3)c2)s1` [Compound 135, (2-(5-(cyclopropylmethyl)-4-(3-fluoro-4-sulfamoylbenzyl)-3-(3-((5-methylthiophen-2-yl)ethynyl)phenyl)-1H-pyrazol-1-yl)thiazol-4-yl)boronic acid] showed an IC50 of 1000 to 57000 nM. The compound `NS(=O)(=O)c1ccc(Cc2c(-c3ccc(F)c(-c4ccc(F)c(F)c4)c3)nn(-c3nc(C(=O)O)cs3)c2CC2CC2)cc1F` [Compound 136, 2-(5-(cyclopropylmethyl)-4-(3-fluoro-4-sulfamoylbenzyl)-3-(3′,4′,6-trifluoro-[1,1′-biphenyl]-3-yl)-1H-pyrazol-1-yl)thiazole-4-carboxylic acid] gave an IC50 of less than 100 nM. In turn, `CC(=O)c1cc(-c2nn(-c3nc(C(=O)O)cs3)c(CC3CC3)c2Cc2ccc(S(N)(=O)=O)c(F)c2)ccc1F` [Compound 140, 2-(3-(3-acetyl-4-fluorophenyl)-5-(cyclopropylmethyl)-4-(3-fluoro-4-sulfamoylbenzyl)-1H-pyrazol-1-yl)thiazole-4-carboxylic acid] showed an IC50 of less than 100 nM.

In turn, `NS(=O)(=O)c1ccc(Cc2c(-c3ccc(F)c(C4=CCCO4)c3)nn(-c3nc(C(=O)O)cs3)c2CC2CC2)cc1F` [Compound 148, 2-(5-(cyclopropylmethyl)-3-(3-(4,5-dihydrofuran-2-yl)-4-fluorophenyl)-4-(3-fluoro-4-sulfamoylbenzyl)-1H-pyrazol-1-yl)thiazole-4-carboxylic acid] gave a half-maximal inhibitory concentration (IC50) of less than 100 nM. `NS(=O)(=O)c1ccc(Cc2c(-c3ccc(F)c(NC(=O)c4ccccc4)c3)nn(-c3nc(C(=O)O)cs3)c2CC2CC2)cc1F` [Compound 152, 2-(3-(3-benzamido-4-fluorophenyl)-5-(cyclopropylmethyl)-4-(3-fluoro-4-sulfamoylbenzyl)-1H-pyrazol-1-yl)thiazole-4-carboxylic acid] yielded an IC50 of less than 100 nM. Under `N[S+](=O)([O-])c1ccc(Cc2c(-c3ccc(F)c(C(=O)N4CCCC4)c3)nn(-c3nc(C(=O)O)cs3)c2CC2CC2)cc1F` [Compound 154] stands less than 100 nM. Turning to `CC(C)N1CC2(CN(c3cc(-c4nn(-c5nc(C(=O)O)cs5)c(CC5CC5)c4Cc4ccc(S(N)(=O)=O)c(F)c4)ccc3F)C2)C1` [Compound 158, 2-(5-(cyclopropylmethyl)-3-(4-fluoro-3-(6-isopropyl-2,6-diazaspiro[3.3]heptan-2-yl)phenyl)-4-(3-fluoro-4-sulfamoylbenzyl)-1H-pyrazol-1-yl)thiazole-4-carboxylic acid], the IC50 is less than 100 nM. Compound `NS(=O)(=O)c1ccc(Cc2c(-c3ccc(F)c(-c4ncc[nH]4)c3)nn(-c3nc(C(=O)O)cs3)c2CC2CC2)cc1F` [Compound 159, 2-(5-(cyclopropylmethyl)-3-(4-fluoro-3-(1H-imidazol-2-yl)phenyl)-4-(3-fluoro-4-sulfamoylbenzyl)-1H-pyrazol-1-yl)thiazole-4-carboxylic acid] showed an IC50 of less than 100 nM.

`NS(=O)(=O)c1ccc(Cc2c(-c3ccc(F)c(-c4nc5ccccc5[nH]4)c3)nn(-c3nc(C(=O)O)cs3)c2CC2CC2)cc1F` [Compound 160, 2-(3-(3-(1H-benzo[d]imidazol-2-yl)-4-fluorophenyl)-5-(cyclopropylmethyl)-4-(3-fluoro-4-sulfamoylbenzyl)-1H-pyrazol-1-yl)thiazole-4-carboxylic acid] returned an IC50 of less than 100 nM. `Cc1ncc(-c2cc(-c3nn(-c4nc(C(=O)O)cs4)c(CC4CC4)c3Cc3ccc(S(N)(=O)=O)c(F)c3)ccc2F)[nH]1` [Compound 161, 2-(5-(cyclopropylmethyl)-3-(4-fluoro-3-(2-methyl-1H-imidazol-5-yl)phenyl)-4-(3-fluoro-4-sulfamoylbenzyl)-1H-pyrazol-1-yl)thiazole-4-carboxylic acid] came in with an IC50 of less than 100 nM. On to `Cc1ccc(C#Cc2cccc(-c3nn(-c4nc(C(N)=O)cs4)c(CC4CC4)c3Cc3ccc(S(N)(=O)=O)c(F)c3)c2)s1` [Compound 163, 2-(5-(cyclopropylmethyl)-4-(3-fluoro-4-sulfamoylbenzyl)-3-(3-((5-methylthiophen-2-yl)ethynyl)phenyl)-1H-pyrazol-1-yl)thiazole-4-carboxamide], for which the IC50 lay in the range of 1000 to 57000 nM. `Cc1cc(-c2cccc(-c3nn(-c4nc(C(=O)O)cs4)c(CC4CC4)c3Cc3ccc(S(N)(=O)=O)c(F)c3)c2)ccc1Cl` [Compound 170, 2-(3-(4′-chloro-3′-methyl-[1,1′-biphenyl]-3-yl)-5-(cyclopropylmethyl)-4-(3-fluoro-4-sulfamoylbenzyl)-1H-pyrazol-1-yl)thiazole-4-carboxylic acid] gave an IC50 of 1000 to 57000 nM. `NS(=O)(=O)c1ccc(Cc2c(-c3cccc(-c4ccc(C5CC5)c(F)c4)c3)nn(-c3nc(C(=O)O)cs3)c2CC2CC2)cc1F` [Compound 171, 2-(3-(4′-cyclopropyl-3′-fluoro-[1,1′-biphenyl]-3-yl)-5-(cyclopropylmethyl)-4-(3-fluoro-4-sulfamoylbenzyl)-1H-pyrazol-1-yl)thiazole-4-carboxylic acid] had an IC50 of 1000 to 57000 nM. In turn, `COc1ccc(-c2cccc(-c3nn(-c4nc(C(=O)O)cs4)c(CC4CC4)c3Cc3ccc(S(N)(=O)=O)c(F)c3)c2)cc1Cl` [Compound 172, 2-(3-(3′-chloro-4′-methoxy-[1,1′-biphenyl]-3-yl)-5-(cyclopropylmethyl)-4-(3-fluoro-4-sulfamoylbenzyl)-1H-pyrazol-1-yl)thiazole-4-carboxylic acid] had an IC50 of 100 to 1000 nM. Under `Cc1ccc(C#Cc2cccc(-c3nn(-c4nc(C(=O)NS(C)(=O)=O)cs4)c(CC4CC4)c3Cc3ccc(S(N)(=O)=O)c(F)c3)c2)s1` [Compound 180, 2-(5-(cyclopropylmethyl)-4-(3-fluoro-4-sulfamoylbenzyl)-3-(3-((5-methylthiophen-2-yl)ethynyl)phenyl)-1H-pyrazol-1-yl)-N-(methylsulfonyl)thiazole-4-carboxamide] stands 1000 to 57000 nM.

As a reminder, the IC50 is the concentration needed to halve the response being measured. Read a high IC50 as weaker potency in that assay.

The values above are taken from patent US10954228B2 (NATIONAL INSTITUTES OF HEALTH, UNITED STATES DEPARTMENT OF …, priority 2016, dated 2021).
